Measurements published in patent publication US8895471B2, “Chiral3-(benzylsulfinyl)-5,5-dimethyl-4,5-dihydroisoxazole derivatives and 5,5-dimethyl-3-[(1h-pyrazol-4-ylmethyl)sulfinyl]-4,5-dihyddroisoxazole derivatives, method for the production thereof, and use of same as herbicides and plant growth regulators” (Bayer Cropscience AG, priority 2007, dated 2014).

Columns and labels:
[1] = system: Avena fatua, Stellaria media, Echinochloa crus-galli, Lolium multiflorum, Setaria viridis, Amaranthus retroflexus, Viola tricolor, Veronica persica and …; test: Pre-emergence herbicidal activity against harmful plants; format: in vivo; settings: application rate of 0.32 kg and less of active substance per hectare
Source text: (§1) 1. Pre-emergence herbicidal effect and crop plant compatibility
(§2) • Seeds of monocotyledonous or dicotyledonous weed plants or crop plants are planted in wood-fiber pots in sandy loam and covered with soil. The compounds according to the invention, formulated in the form of wettable powders (WP), are then applied as aqueous suspension at a water application rate of 600 l/ha (converted) with the addition of 0.2% of wetting agent to the surface of the covering soil. • After the treatment, the pots are placed in a greenhouse and kept under good growth conditions for the test plants. After about 3 weeks, the effect of the preparations is scored visually in comparison with untreated controls (herbicidal effect in percent (%): 100% activity=the plants have died, 0% activity=like control plants). • As shown by the results, the compounds according to the invention have good herbicidal pre-emergence activity against a broad spectrum of weed grasses and broad-leaved weeds. […] Some of the compounds according to the invention have high selectivity and are therefore suitable for controlling unwanted vegetation in agricultural crops by the pre-emergence method.

[2] = system: Brassica napus (winter rape); test: Pre-emergence herbicidal effect and crop plant compatibility, BRSNW; format: in vivo; settings: scored after about 3 weeks
Source text: as §1, §2
(§3) • ALOMY Alopecurus myosuroides (black-grass) • LOLMU: Lolium multiflorum (Italian ryegrass) • SETVI: Setaria viridis (green foxtail) • BRSNW: Brassica napus (winter rape) • ZEAMX: Zea mays (corn) 2. Post-Emergence Herbicidal Effect and Crop Plant Compatibility • Seeds of monocotyledonous and dicotyledonous weed and crop plants are placed in sandy loam in wood fibre pots, covered with soil and cultivated in a greenhouse under good growth conditions. 2 to 3 weeks after sowing, the test plants are treated at the one-leaf stage. The compounds according to the invention, formulated in the form of wettable powders (WP), are then applied by spraying as aqueous suspension at a water application rate of 600 l/ha (converted) with the addition of 0.2% of wetting agent to the green parts of the plants. After the test plants have been kept in the greenhouse under optimum growth conditions for about 3 weeks, the activity of the preparations is rated visually in comparison to untreated controls (herbicidal activity in percent (%): 100% activity=the plants have died, 0% activity=like control plants). • As shown by the results, the compounds according to the invention have good herbicidal post-emergence activity against a plurality of weed grasses and broad-leaved weeds. […] Some of the compounds according to the invention have high selectivity and are therefore suitable for controlling unwanted vegetation in agricultural crops by the post-emergence method.

[3] = system: Alopecurus myosuroides (black-grass); test: Pre-emergence herbicidal effect, ALOMY; format: in vivo; settings: scored after about 3 weeks
Source text: as §1, §2, §3

[4] = system: Lolium multiflorum (Italian ryegrass); test: Pre-emergence herbicidal effect, LOLMU; format: in vivo; settings: scored after about 3 weeks
Source text: as §1, §2, §3

[5] = system: Avena fatua, Echinochloa crus-galli, Lolium multiflorum, Setaria viridis and Alopecurus myosuroides; test: Post-emergence herbicidal effect and crop plant compatibility; format: in vivo; settings: application rate of 0.32 kg and less of active substance per hectare
Source text: as §3

[6] = system: Setaria viridis (green foxtail); test: Pre-emergence herbicidal effect, SETVI; format: in vivo; settings: scored after about 3 weeks
Source text: as §1, §2, §3

POLCO = test: Pre-emergence herbicidal effect, POLCO; format: in vivo; settings: scored after about 3 weeks
Source text: as §1, §2

Zea mays (corn) = test: Pre-emergence herbicidal effect and crop plant compatibility, ZEAMX; format: in vivo; settings: scored after about 3 weeks
Source text: as §1, §2, §3

VERPE = test: Pre-emergence herbicidal effect, VERPE; format: in vivo, Veronica persica; settings: scored after about 3 weeks
Source text: as §1, §2

SMILES | herbicidal activity against harmful plants, pre-emergence method [1] | herbicidal effect in percent, BRSNW (crop plant) ([2]; 80 g of active compound/ha) | herbicidal effect in percent, BRSNW (crop plant) ([2]; 320 g of active compound/ha) | herbicidal effect in percent, ALOMY ([3]; 80 g of active compound/ha) | herbicidal effect in percent, ALOMY ([3]; 320 g of active compound/ha) | herbicidal effect in percent, LOLMU ([4]; 80 g of active compound/ha) | herbicidal effect in percent, LOLMU ([4]; 320 g of active compound/ha) | herbicidal activity against harmful plants, post-emergence method [5] | herbicidal effect in percent, SETVI ([6]; 80 g of active compound/ha) | herbicidal effect in percent, SETVI ([6]; 320 g of active compound/ha) | herbicidal effect in percent, ALOMY ([3]; 20 g of active compound/ha) | herbicidal effect in percent, POLCO (POLCO; 20 g of active compound/ha) | herbicidal effect in percent, POLCO (POLCO; 80 g of active compound/ha) | herbicidal effect in percent, ZEAMX (crop plant) (Zea mays (corn); 20 g of active compound/ha) | herbicidal effect in percent, ZEAMX (crop plant) (Zea mays (corn); 80 g of active compound/ha) | herbicidal effect in percent, VERPE (VERPE; 20 g of active compound/ha) | herbicidal effect in percent, VERPE (VERPE; 80 g of active compound/ha) | herbicidal effect in percent, BRSNW (crop plant) ([2]; 20 g of active compound/ha) | herbicidal effect in percent, LOLMU ([4]; 20 g of active compound/ha) | herbicidal effect in percent, SETVI ([6]; 20 g of active compound/ha)
CC1(C)CC([S@+]([O-])Cc2c(F)cccc2F)=NO1 [Compound 228, 3-[(R)-(2,6-difluorobenzyl)sulfinyl]-5,5-dimethyl-4,5-dihydroisoxazole] | very good herbicidal activity | 0% | 0% | 60% | 80% | 0% | 0% | very good herbicidal activity | 0% | 50% | – | – | – | – | – | – | – | – | – | –
CC1(C)CC([S@@+]([O-])Cc2c(Cl)cccc2Cl)=NO1 [Compound 32, 3-[(S)-(2,6-Dichlorobenzyl)sulfinyl]-5,5-dimethyl-4,5-dihydroisoxazole] | very good herbicidal activity | – | – | 100% | – | – | – | very good herbicidal activity | – | – | 80% | 40% | 80% | 0% | 0% | 40% | 100% | – | – | –
Cn1nc(C(F)(F)F)c(C[S@@+]([O-])C2=NOC(C)(C)C2)c1OC(F)F [Compound 664, 3-[(R)-{[5-(difluoromethoxy)-1-methyl-3-(trifluoromethyl)-1H-pyrazol-4-yl]methyl}sulfinyl]-5,5-dimethyl-4,5-dihydroisoxazole] | very good herbicidal activity | – | – | – | – | – | – | very good herbicidal activity | – | – | – | – | – | – | – | – | – | – | – | –
CC1(C)CC([S+]([O-])Cc2c(F)cccc2F)=NO1 (racemic) [Racemate of 6 (S config.) and 228 (R config.), 3-[(2,6-difluorobenzyl)sulfinyl]-5,5-dimethyl-4,5-dihydroisoxazole, reference compound] | – | 20% | 30% | 70% | 100% | 80% | 80% | – | 40% | 40% | – | – | – | – | – | – | – | – | – | –
CC1(C)CC([S+]([O-])Cc2c(Cl)cccc2Cl)=NO1 (racemic) [Racemate of 32 (S config.) and 254 (R config.), 3-[(2,6-dichlorobenzyl)sulfinyl]-5,5-dimethyl-4,5-dihydroisoxazole, reference compound] | – | – | – | 90% | – | – | – | – | – | – | 80% | – | 20% | 0% | 10% | 0% | – | – | – | –
Cn1nc(C(F)(F)F)c(C[S+]([O-])C2=NOC(C)(C)C2)c1OC(F)F (racemic) [Racemate of 483 (S config.) and 664 (R config.), 3-({[5-(difluoromethoxy)-1-methyl-3-(trifluoromethyl)-1H-pyrazol-4-yl]methyl}sulfinyl)-5,5-dimethyl-4,5-dihydroisoxazole, reference compound] | – | 0% | – | 90% | – | 90% | – | – | 80% | – | 0% | – | – | – | – | – | – | 0% | 0% | 40%
CC1(C)CC([S@+]([O-])Cc2c(Cl)cccc2Cl)=NO1 [Compound 254, 3-[(R)-(2,6-dichlorobenzyl)sulfinyl]-5,5-dimethyl-4,5-dihydroisoxazole] | very good herbicidal activity | – | – | 60% | – | – | – | very good herbicidal activity | – | – | 0% | 10% | 20% | 0% | 0% | 0% | 20% | – | – | –
CC1(C)CC([S@@+]([O-])Cc2c(F)cccc2F)=NO1 [Compound 6, 3-[(S)-(2,6-Difluorobenzyl)sulfinyl]-5,5-dimethyl-4,5-dihydroisoxazole] | very good herbicidal activity | 0% | 0% | 90% | 100% | 80% | 100% | very good herbicidal activity | 60% | 100% | – | – | – | – | – | – | – | – | – | –
Cn1nc(C(F)(F)F)c(C[S@+]([O-])C2=NOC(C)(C)C2)c1OC(F)F [Compound 483, 3-[(S)-{[5-(Difluoromethoxy)-1-methyl-3-(trifluoromethyl)-1H-pyrazol-4-yl]methyl}sulfinyl]-5,5-dimethyl-4,5-dihydroisoxazole] | very good herbicidal activity | 0% | – | 100% | – | 100% | – | very good herbicidal activity | 90% | – | 80% | – | – | – | – | – | – | 0% | 60% | 80%
